Results taken from patent US12310967B2, “Compositions and methods of treatment for neurological disorders comprising motor neuron diseases” (Gliapharm SA, priority 2017, dated 2025).

Tests used:
primary astrocytes [1] = assay: Extracellular lactate quantification; format: cell-based, mouse; conditions: for Score_LACTATE: Appendix I, secondary screening: extracellular lactate; for Score Lact. / EC50: Appendix II; for Score Lact.: CDC54K library; for EC50: Mus musculus, Astrocyte, lactate secretion, read-out: EC50
Experimental: Secretion of L-lactate was determined in the extracellular medium of 96-well plated astrocytes after 90 min stimulation (at 37° C., in 5% CO2/95% air conditions) with the drug of interest. The stimulation medium was composed of D5030 medium (completed with D-glucose 5 mM and 44 mM sodium bicarbonate) for 90 min in concentrations ranging from 0 to 100 μM.
Briefly, 200 μl of a Glycine (Sigma)-Semicarbazide (Acros) 0.2M pH 10 buffer containing 3 mM NAD (Roche) and LDH 14 U/ml (Roche) was added to each well of a 96-well plate containing 30 μl aliquots complemented with 20 μl fresh complete D5030 medium. Samples were incubated at 37° C. for 1 h. After samples cooled down at room temperature, the fluorescence intensity (340 nm excitation/450 nm emission) that represents the amount of NADH produced was measured, and lactate concentration values were determined from a standard curve of L-lactate.
Statistical analysis consisted in ANOVA followed by Fisher LSD post-hoc test for pair-wise comparisons.
Levels of lactate secreted by astrocytes were measured in the extracellular medium at 90 min after stimulation with hits (molecules) from the CDC54K library.

primary astrocytes [2] = assay: High throughput screening (HTS) for lactate secretion: acidification of extracellular medium (SNARF5); format: cell-based, mouse; design: key to Score / HTS Score (SNARF5) / Score_SNARF: fraction of plate positive-control activity (1 = 100%); conditions: for Score_SNARF: primary screening confirmation (SNARF5)
Experimental: Primary cultures of cerebrocortical astrocytes were obtained from 1-2-day-old OF1 mouse pups (Charles River Laboratories). Briefly, cortices were isolated and minced in small pieces under a dissecting microscope. The cells were incubated for 30 min at 37° C. in a solution containing 20 U/ml of papain enzyme (Worthington Biochemical), L-cysteine 1 mM (Sigma), and 10 kU/ml DNase I (Worthington Biochemical) for an enzymatic dissociation. Papain activity was stopped by the addition of fetal calf serum (FCS) to the solution, and a single-cell suspension was then obtained by mechanical dissociation, which consisted in cells trituration in a DMEM (D7777, Sigma-Aldrich) medium (supplemented with 44 mm NaHCO3, and 10 ml/L antibiotic/antimycotic solution) containing 10% FCS. The cells were seeded at an average density of 6×10^4 cells/cm^2 in poly-D-lysine-coated 96, 12 or 6-well culture plates, depending on their use, and incubated at 37° C. in a humidified atmosphere containing 5% CO2/95% air. Culture medium was renewed twice per week. Cells were stimulated and harvested between DIV14 and DIV17, when confluence and cell growth were optimal.
Secretion of lactate in a high-throughput screening (HTS) fashion was measured indirectly through the acidification of extracellular medium. To this end, primary astrocytes grown in 96-well plates for 17 days were stimulated with the compounds as listed herein.
After washing the cells twice with stimulation medium (DMEM (D5030, Sigma), 3 mM NaHCO3 and 5 mM Glucose) at 37° C., cells were stimulated with the compounds at a final concentration of 10 uM (1% DMSO final) in 50 ul per well of stimulation medium supplemented with 10 uM of the extracellular pH sensor SNARF-5F %-(AND-6)-CAR (Life Technologies Corporation). Each compound was tested in two different plates for duplicates.
After 90 min stimulation, fluorescence was read at exc. (excitation) 480 nm/emm. (emission) 580 nm and at exc 480 nm/emm. 630 nm. The ratio of fluorescence between 630 nm and 580 emission values, which represents extracellular pH, was calculated.
In each plate, 8 wells were used for negative controls (DMSO) and 8 wells were used for positive controls (CCCP 2 uM in DMSO). Z prime values were calculated for each of the plates tested and values<0 were discarded.
The average and SD of compounds' values tested in duplicates were calculated, and compound was noted as HIT when the difference between compound's average and negative control's average was greater than three times the sum of compound's SD and negative controls' SD. Only scores greater than 40% were considered as lead Hits for the CDC54K library; for the remaining libraries, all hits were considered. Scores are calculated as the % of activity compared to the positive control in each plate (which is 100%).
Primary screening hits were cherry picked on new plates and confirmed for SNARF5 effect, after having discarded those compounds that are fluorescent (exc. 480 nm/emm. 580 nm or 630 nm) before stimulation. Extracellular medium was next analyzed for extracellular lactate quantification for secondary screening.
Identification of lactate-enhancing drugs with high throughput screening (HTS) experiments on astrocytes primary cultures using extracellular pH dye (SNARF5F 5-(and-6)-carboxylic acid) for 90 min. The procedure is described in Material and Methods (2. Cell culture, 2.1. HTS for lactate secretion and 2.2. Extracellular lactate quantification).
The procedure was performed as follows: • Primary screening: acidification of the extracellular medium • Primary screening confirmation: acidification of the extracellular medium, removal of compounds with fluorescent activity at exc. 480 nm/emm. 580 nm or 630 n. • Secondary screening: dosage of extracellular lactate

Compound	Score_LACTATE (primary astrocytes [1])	Score_SNARF (primary astrocytes [2]; Appendix I)	also measured
CN(C)Cc1cccc(CNc2ncnc3sccc23)c1 [T6783542]	1.033	0.9183	–
Cc1cccc(NS(=O)(=O)c2cc(-c3noc(C)n3)cs2)c1 [L287-0220]	1.578	0.5829	–
Cc1cccc(NS(=O)(=O)c2cc(-c3ccnn3C)cs2)c1 [L924-0884]	0.7362	0.7507	–
COc1ccc(C2(O)C[N+](c3cc(C)ccc3C)=C3SCCCN32)c(F)c1 (stereo not drawn) [K404-0183]	0	0	–
Cc1cccc([N+]2=C3CCCCN3C(O)(c3ccc(Cl)cc3)C2)c1 (stereo not drawn) [K404-0800]	0.8385	0.7386	–
COc1ccccc1[N+]1=C2CCCCCN2C(O)(c2ccc(F)cc2)C1.[Br-] (stereo not drawn) [F0524-0611]	1.547	0.5954	–
CCOc1ccc(C2(O)C[N+](c3ccccc3OC)=C3CCCCN32)cc1 (stereo not drawn) [K404-0673]	2.024	0.9751	–
Clc1ccc2c(c1)CCc1cccnc1C2=C1CCNCC1 [Desloratadine]	–	–	Score (primary astrocytes [2]; Prestwick library, 10 uM, 90 min, activity relative to positive control CCCP 2 uM): 0.06079; HTS Score (lactate) (primary astrocytes [2]; Prestwick library, 10 uM, 90 min, relative to positive control CCCP 2 uM): 0.061
CC1c2ccsc2CCN1c1ncnc2sccc12 (stereo not drawn) [T5630309]	0.7	0.4816	–
Cc1cc(S(=O)(=O)NCc2ccncc2)c(Cl)cc1Cl [T5581430]	0	0.505	–
COc1ccc(Cl)cc1S(=O)(=O)NCc1ccncc1 [F0376-0203]	0	0	–
Cc1oc2ncnc(N3CCCC(C(=O)NCc4ccccc4)C3)c2c1C (stereo not drawn) [F228-0365]	0.9001	0.9429	–
Cc1cccc([N+]2=C3CCCCCN3C(O)(c3ccc(F)cc3)C2)c1 (stereo not drawn) [K404-0910]	0.6219	0.5878	–
FC(F)(F)c1cccc(CNc2ncnc3sccc23)c1 [T5346988]	0.9327	0.9569	–
Cc1ccc(CNS(=O)(=O)c2cc(-c3noc(C4CCCC4)n3)cs2)cc1 [L287-1641]	0.8035	0.626	–
O=C(NCc1ccccc1)NC1CCN(c2ncnc3c2CCC3)C1 (stereo not drawn) [T636-1210]	0.3226	0.4305	–
COc1ccccc1S(=O)(=O)Nc1ccc2nc(C)sc2c1 [T5246417]	0	0.2455	–
COc1ccccc1Nc1nc(N2CCOCC2)c2ccccc2n1 [F3007-0009]	0	0	–
O=C(NC1CC1)c1cccc(NS(=O)(=O)c2ccc(N3CCCC3=O)cc2)c1 [T5618591]	0.3601	0.5353	–
Cc1nc(-c2cccc(NS(=O)(=O)c3ccc(N4CCCC4=O)cc3)c2)cs1 [T5599698]	0.7496	0.8856	–
Cc1ccc(CN2CCN(c3ncnc4c3CCC4)CC2)o1 [T636-1937]	0.8045	0.473	–
O=C(C[n+]1cc(-c2ccc(Br)cc2)n2c1CCCCC2)c1ccccc1.[Br-] [T0500-4648]	1.116	1.034	–
O=C(c1ccco1)N1CCCn2nc(-c3ccc(C(F)(F)F)cc3)cc2C1 [T200-0370]	0.2896	0.3804	–
CC(Nc1ncnc2sccc12)c1ccccn1 (stereo not drawn) [T5672380]	0.5883	0.7508	Score Lact. (primary astrocytes [1]): 0.58

Compound	Score_LACTATE (primary astrocytes [1])	Score_SNARF (primary astrocytes [2]; Appendix I)	also measured
COc1ccc(OC)c([N+]2=C3CCCCCN3C(O)(c3ccc(C)cc3)C2)c1 (stereo not drawn) [K404-0855]	0.6277	0.4944	–
COc1cccc(CNc2ncnc3c2CCC3)c1 [T636-0134]	0.3283	0	–
CC(=O)c1ccc(NS(=O)(=O)c2cc(-c3noc(C4CCCC4)n3)cs2)cc1 [L287-1577]	1.215	1.059	–
c1ccc(C(Nc2ncnc3sccc23)C2CC2)cc1 (stereo not drawn) [T6016487]	1.857	1.081	–
CCc1ccc(C2(O)C[N+](c3ccccc3OC)=C3CCCCN32)cc1 (stereo not drawn) [K404-0672]	1.356	1.014	–
COc1ccc(C2SCCN2S(=O)(=O)c2cccc(C)c2)cc1OC (stereo not drawn) [T5463658]	0.3773	0.4683	–
CCOc1ccc(C2(O)C[N+](c3cc(OC)ccc3OC)=C3CCCCCN32)cc1 (stereo not drawn) [K404-0860]	0.4766	0.6137	–
Cc1ccc(C)c([N+]2=C3CCCCN3C(O)(c3ccc(F)cc3)C2)c1 (stereo not drawn) [K404-0697]	0.6526	0.5123	–
O=S(=O)(Nc1ccc(F)c(Cl)c1)c1ccc2ccccc2c1 [T5231424]	0.5258	0.3707	–
CCc1ccc(S(=O)(=O)N2CCSC2c2ccc(OC)c(OC)c2)cc1 (stereo not drawn) [4052-4304]	0.4335	0.4491	–
COc1ccc(C2SCCN2S(=O)(=O)c2ccc(C)c(C)c2)cc1OC (stereo not drawn) [F1462-0491]	0	0	–
CC(=O)c1cccc(NC(=O)C(C)Sc2ncnc3ccsc23)c1 (stereo not drawn) [T5627721]	0.9487	0.7385	–
Cc1cccc([N+]2=C3CCCCCN3C(O)(c3cccc([N+](=O)[O-])c3)C2)c1 (stereo not drawn) [K404-0915]	–	–	Score (primary astrocytes [2]; Appendix I, CDC54K primary screening, 10 uM, 90 min, relative to CCCP 2 uM): 0
Cc1ccccc1NS(=O)(=O)c1ccc2onc(C(=O)N3CCCCC3)c2c1 [L995-0405]	0	0.3724	–
Cc1ccc(F)cc1NC(=O)Cc1nn(C)c(=O)c2ccccc12 [T6302989]	0	0.4072	–
Cc1ccsc1C(=O)NC1CCN(c2ncnc3c2CCC3)C1 (stereo not drawn) [T636-1114]	0.5477	0.6238	–
Cc1ccc(CNc2ncnc3c2CCC3)o1 [T636-0054]	0	0	–
CNC(=O)C1CCCN(c2ncnc3oc(C)c(C)c23)C1 (stereo not drawn) [F228-0541]	0	0.3609	–
C1=Cc2ncnc(NCc3ccc4c(c3)OCO4)c2C1 [T5787526]	–	–	Score Lact. (primary astrocytes [1]): 0.71; EC50 (primary astrocytes [1]): 3.89 µM
CCc1ccccc1NC(=O)CN(C)c1nccc2c1oc1ccccc12 [T5712071]	–	–	Score Lact. (primary astrocytes [1]): 0.8; EC50 (primary astrocytes [1]): 1.14 µM
CCc1c(C)nc2ncnn2c1NC1CCCCC1 [Z606-8352]	–	–	Score Lact. (primary astrocytes [1]): 0.83
CCc1cc2c(NC3CCCC3)ncnc2s1 [887-0183]	–	–	Score Lact. (primary astrocytes [1]): 0.66
O=c1[nH]nc(SCCOc2ccc(Br)cc2)n1C1CC1 [T533260]	–	–	Score Lact. (primary astrocytes [1]): 0.53; EC50 (primary astrocytes [1]): 6.84 µM
Cc1nc2ncnn2c(NC2CCCCCC2)c1C [Z606-8287]	–	–	Score Lact. (primary astrocytes [1]): 0.57
